Consider one molecule from ChEMBL document CHEMBL5096221, “Discovery of a Highly Potent and Orally Bioavailable STAT3 Dual Phosphorylation Inhibitor for Pancreatic Cancer Treatment” (J Med Chem, 2022).

Series [1] concerns the target T1, Signal transducer and activator of transcription 3 (Homo sapiens, UniProt P40763). Description: Inhibition of STAT3 in human BXPC-3 cells assessed as inhibition of IL-6 stimulated nuclear STAT3 phosphorylation at Tyr 705 at 1 to 30 nM by western blot assay. It counts as cell-based. The settings on record: dose 1-30 nM.
The nature of series [2]: Toxicity in BALB/c mouse xenografted with human BXPC-3 cells assessed as effect on kidney at 10 mg/kg,po administrated once daily for 8 weeks by H and E staining based microscopic analysis. The settings on record: in vivo, 1344 h. In kind it is organism-based.
The nature of series [3]: Toxicity in BALB/c mouse xenografted with human BXPC-3 cells assessed as effect on heart at 10 mg/kg,po administrated once daily for 8 weeks by H and E staining based microscopic analysis. It counts as organism-based. Particulars: in vivo, 1344 h.
In series [4] the target is T1, Signal transducer and activator of transcription 3. Description: Inhibition of STAT3 in human BXPC-3 cells assessed as inhibition of STAT3 phosphorylation at Tyr 705 at 1 to 30 nM incubated for 22 to 24 hrs by western blot analysis. The settings on record: dose 1-30 nM, time 22-24 hrs, DDE = dose-dependent effect. In kind it is cell-based.
The next series has as its system MIA PaCa-2. Description: Anti-proliferative activity against human MIA PaCa-2 cells assessed as cell growth inhibition incubated for 72 hrs by MTS assay. In kind it is functional, cell-based. The settings on record: MIA PaCa-2, 72 h.
The test system of another series is BXPC-3. Description: Anti-proliferative activity against human BXPC-3 cells assessed as cell growth inhibition incubated for 72 hrs by MTS assay. Particulars: BXPC-3, 72 h. In kind it is functional, cell-based.
The target in the next series is Cytochrome P450 2D6 (Homo sapiens, UniProt P10635). Description: Inhibition of CYP2D6 in human liver microsomes using dextromethorphan as substrate incubated for 60 mins in presence of NADPH by HPLC analysis. In kind it is ADME, Microsome.
Chain of Cytochrome P450 2D6 (P10635 whole entry): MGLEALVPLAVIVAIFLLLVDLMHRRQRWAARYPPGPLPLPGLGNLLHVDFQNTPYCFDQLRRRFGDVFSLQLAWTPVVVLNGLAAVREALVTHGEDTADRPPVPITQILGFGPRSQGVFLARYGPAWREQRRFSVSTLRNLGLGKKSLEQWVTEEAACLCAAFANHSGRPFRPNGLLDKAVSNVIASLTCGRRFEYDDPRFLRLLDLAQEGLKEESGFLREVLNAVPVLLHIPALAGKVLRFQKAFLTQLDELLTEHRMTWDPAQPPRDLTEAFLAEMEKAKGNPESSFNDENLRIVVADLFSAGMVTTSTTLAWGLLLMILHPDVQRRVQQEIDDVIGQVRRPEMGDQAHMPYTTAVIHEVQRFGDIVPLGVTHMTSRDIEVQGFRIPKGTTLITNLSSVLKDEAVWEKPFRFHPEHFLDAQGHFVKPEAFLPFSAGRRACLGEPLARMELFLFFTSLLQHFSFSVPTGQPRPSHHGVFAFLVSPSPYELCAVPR

Molecules are shown by their SMILES. Activity calls are given as the source filed them. The calls are words filed in the database; no cut-off is given here.

T1 sequence (P40763 whole entry): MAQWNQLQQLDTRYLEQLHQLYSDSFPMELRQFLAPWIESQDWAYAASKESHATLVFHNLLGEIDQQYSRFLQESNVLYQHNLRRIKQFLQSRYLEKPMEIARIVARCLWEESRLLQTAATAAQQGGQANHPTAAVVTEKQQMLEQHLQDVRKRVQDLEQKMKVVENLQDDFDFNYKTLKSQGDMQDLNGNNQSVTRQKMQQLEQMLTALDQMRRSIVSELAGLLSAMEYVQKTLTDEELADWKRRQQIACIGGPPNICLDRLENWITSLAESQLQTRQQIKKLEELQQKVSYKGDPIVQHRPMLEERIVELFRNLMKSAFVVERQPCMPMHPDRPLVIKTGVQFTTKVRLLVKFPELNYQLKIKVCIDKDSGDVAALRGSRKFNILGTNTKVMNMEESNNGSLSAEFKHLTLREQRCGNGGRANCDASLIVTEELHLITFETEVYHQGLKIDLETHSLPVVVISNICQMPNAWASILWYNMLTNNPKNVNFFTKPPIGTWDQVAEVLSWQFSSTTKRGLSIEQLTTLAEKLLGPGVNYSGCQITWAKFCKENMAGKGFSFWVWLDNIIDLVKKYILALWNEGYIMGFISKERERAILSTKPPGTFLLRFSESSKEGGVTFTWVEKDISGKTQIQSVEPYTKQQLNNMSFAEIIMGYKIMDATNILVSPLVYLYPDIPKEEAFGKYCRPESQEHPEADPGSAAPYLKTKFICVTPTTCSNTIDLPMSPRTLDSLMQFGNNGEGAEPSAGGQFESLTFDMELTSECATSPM

As to `COc1ccc(-c2noc(-c3cnc(Oc4ccc5cc(C(=O)N6CCN(Cc7ccc(OCC(F)(F)F)cc7)CC6)n(C)c5c4)cn3)n2)cc1`, the inhibition entry in series [1] was “Active”. Moreover, the Activity entry in series [2] and in series [3] was “Non-Toxic” each time. The inhibition entry in series [4] is “Dde”. The IC50 in the series with MIA PaCa-2 is 2.1 nM; with BXPC-3 it was 0.4 nM; at Cytochrome P450 2D6, more than 50000 nM.
